Experimental data as given in US5318972A, “Pyrimidine nucleoside derivative and antiviral agent containing the derivative as active ingredient” (priority 1990, dated 1994).

Experiments:
host cells = details: background, clinical treatment of HIV-infection; cited from earlier work
HIV = test: Inhibitory activity for HIV infection (prevention of death of HIV-infected MT-4 cells); assay type: cell-based; details: Human immunodeficiency virus 1, MT4, 120 h, 5 days incubation at 37° C., concentration preventing death of 50% of HIV-infected MT-4 cells
Experimental: (§1) In RPMI 1640 DM culture medium containing 20 mM of Hepes buffer solution, 10% fetal bovine serum and 20 µg/ml of gentamycin, 3×10^4 MT-4 cells (human T cell clone which is destroyed by the infection of HIV) were infected with HIV in an amount of 100 times as large as expected to cause 50% infection of the cells. Immediately thereafter, a predetermined amount of sample was added to the culture medium using 50 mg/ml sample solutions in dimethyl sulfoxide and the cells were cultured at 37° C.
(§2) After 5 days of incubation, the number of existing cells was counted to determine the concentration of the compound required for preventing the death of 50% of the MT-4 cells. Separately, MT-4 cells were cultured in the same way as above except that they were not infected with HIV to determine the concentration of the compound at which 50% of the MT-4 cells were destroyed.

[1] = Cytotoxicity to uninfected MT-4 cells; assay type: cell-based; details: human, 5 days incubation at 37° C., concentration at which 50% of cells were destroyed, read-out: 50% cytotoxic concentration to MT-4 cells
Experimental: as §1, §2

Compound | toxicity in the host cells (host cells) | IC50 (HIV) | CC50 at 120 h [1]
Cc1cn([C@H]2C[C@H](N=[N+]=[N-])[C@@H](CO)O2)c(=O)[nH]c1=O [3'-deoxy-3'-azidothymidine] | considerable strong toxicity |  | 
CCc1c(Sc2ccccc2)n(COCCO)c(=S)[nH]c1=O [Compound 1, 5-ethyl-1-[(2-hydroxyethoxy)methyl]-6-phenylthio-2-thiouracil] |  | 0.11 µM | 148 µM
CCc1c(Sc2cc(C)cc(C)c2)n(COCCO)c(=O)[nH]c1=O [Compound 2, 6-(3,5-dimethylphenylthio)-5-ethyl-1-[(2-hydroxyethoxy)methyl]uracil] |  |  | 149 µM
CCc1c(Sc2cc(C)cc(C)c2)n(COCCO)c(=S)[nH]c1=O [Compound 3, 6-(3,5-dimethylphenylthio)-5-ethyl-1-[(2-hydroxyethoxy)methyl]-2-thiouracil] |  | 0.0078 µM | 227 µM
CCc1c(Sc2cc(Cl)cc(Cl)c2)n(COCCO)c(=O)[nH]c1=O [Compound 6, 6-(3,5-dichlorophenylthio)-5-ethyl-1-[(2-hydroxyethoxy)methyl]uracil] |  | 0.014 µM | 51 µM
CCc1c(Sc2cc(Cl)cc(Cl)c2)n(COCCO)c(=S)[nH]c1=O [Compound 7, 6-(3,5-dichlorophenylthio)-5-ethyl-1-[(2-hydroxyethoxy)methyl]-2-thiouracil] |  | 0.043 µM | 64 µM
CCc1c(Cc2ccccc2)n(COCCO)c(=O)[nH]c1=O [Compound 10, 6-benzyl-5-ethyl-1-[(2-hydroxyethoxy)methyl]uracil] |  | 0.35 µM | 391 µM
CCc1c(Cc2cc(C)cc(C)c2)n(COCCO)c(=O)[nH]c1=O [Compound 12, 6-(3,5-dimethylbenzyl)-5-ethyl-1-[(2-hydroxyethoxy)methyl]uracil] |  | 0.013 µM | 280 µM
CC(C)c1c(Sc2ccccc2)n(COCCO)c(=S)[nH]c1=O [Compound 20, 1-[(2-hydroxyethoxy)methyl]-6-phenylthio-5-isopropyl-2-thiouracil] |  | 0.059 µM | 400 µM
Cc1cc(C)cc(Sc2c(C(C)C)c(=O)[nH]c(=O)n2COCCO)c1 [Compound 21, 6-(3,5-dimethylphenylthio)-1-[(2-hydroxyethoxy)methyl]-5-isopropyluracil] |  |  | 128 µM
Cc1cc(C)cc(Sc2c(C(C)C)c(=O)[nH]c(=S)n2COCCO)c1 [Compound 22, 6-(3,5-dimethylphenylthio)-1-[(2-hydroxyethoxy)methyl]-5-isopropyl-2-thiouracil] |  | 0.0045 µM | 48 µM
Cc1cc(C)cc(Cc2c(C(C)C)c(=O)[nH]c(=O)n2COCCO)c1 [Compound 31, 6-(3,5-dimethylbenzyl)-1-[(2-hydroxyethoxy)methyl]-5-isopropyluracil] |  | 0.0066 µM | 318 µM
CCc1c(Sc2ccccc2)n(COCCO)c(=O)[nH]c1=O [Compound 39, 5-ethyl-1-[(2-hydroxyethoxy)methyl]-6-(phenylthio)uracil] |  | 0.077 µM | 221 µM
CC(C)c1c(Sc2ccccc2)n(COCCO)c(=O)[nH]c1=O [Compound 40, 1-[(2-hydroxyethoxy)methyl]-6-phenylthio-5-isopropyl-uracil] |  | 0.063 µM | 231 µM
CCCc1c(Sc2ccccc2)n(COCCO)c(=S)[nH]c1=O [compound 3, reference compound] |  | 3.4 µM | 224 µM
CCCc1c(Sc2ccccc2)n(COCCO)c(=O)[nH]c1=O [compound 4, reference compound] |  | 13 µM | 282 µM
